Experimental data as given in patent US6866861B1, “Method and composition for enhancing milk component concentrations” (Land O'Lakes, Inc., priority 1999, dated 2005).

Assays:
cows [1] = assay: Abomasal infusion of sorbitol in cows, milk component concentrations (Example 2); format: in vivo, cow; conditions: for Ash / Fat / Lactose / Total Solids / True Protein: 100 g/cow/day abomasal, average of 3 cows
Experimental: To determine the weight percent total solids, wet basis, in a sample, the actual weight of total solids is determined by analyzing the sample in accordance with Method #925.23 (33.2.09) of Official Methods of Analysis, Association of Official Analytical Chemists (AOAC) (16th Ed., 1995). The weight percent total solids, wet basis, is then calculated by dividing the actual weight of total solids by the actual weight of the sample. The weight percent of true protein, wet basis, for a particular sample is calculated after first determining the wet basis weight percent of total Kjeldahl nitrogen and the wet basis weight percent of non-protein nitrogen in the sample. The wet basis weight percent of total Kjeldahl nitrogen in the sample is determined using the method referenced above. The wet basis weight percent of non-protein nitrogen (NPN) in the sample is determined in accordance with Method #991.21 (33.2.12) of Official Methods of Analysis, Association of Official Analytical Chemists (AOAC) (16th Ed., 1995). The weight percent of true protein, wet basis, in the sample is then determined by subtracting the wet basis weight percent of non-protein nitrogen in the sample from the wet basis weight percent of total Kjeldahl nitrogen in the sample. To determine the weight percent lactose, wet basis, in a liquid sample, the weight of the liquid sample is first determined. The actual weight of lactose in the liquid sample may then be determined using analysis kit number 176-303, that is available from Boehringer-Mannheim of Indianapolis, Ind. in accordance with the procedural instructions included with analysis kit number 176-303. The weight percent lactose, wet basis, in the liquid sample is then calculated by dividing the actual weight of lactose in the liquid sample by the actual weight of the liquid sample. To determine the weight percent fat, wet basis, in a sample, the actual weight of fat in the sample is determined in accordance with Method #974.09 (33.7.18) of Official Methods of Analysis, Association of Official Analytical Chemists (AOAC) (16th Ed., 1995). The weight percent fat, wet basis, is then calculated by dividing the actual weight of fat in the sample by the actual weight of the sample. In this example, sorbitol was abomasally infused into three different cows at a rate of 100 grams of sorbitol per cow per day during a 14 day test period. The sorbitol rations were mixed with water to facilitate infusion. The rations provided to the cows during the period extending from day 0, prior to abomasal infusion of sorbitol, through day 14 of the test period were the same. The only difference in feeding of the cows between day 0 and days 1-14 of the test period were that during days 1-14 the cows were abomasally infused with the dosage of 100 grams of sorbitol per cow per day. Milk from the three cows was collected and analyzed prior to infusion (on day 0) and also was collected and analyzed on the third, seventh and fourteenth day of the test period. The results presented in Table 2 below for each milk component for each particular day are averages for the milk collected from the three different cows. The net change for the different milk components presented in Table 2 was calculated by averaging the results of days 3, 7 and 14 for a particular milk component and subtracting the results presented for day 0 for the particular milk component.

cows [2] = assay: Oral feeding of sorbitol (not ruminally protected) to cows versus control group (Example 7); format: in vivo, cow
Experimental: To determine the weight percent total solids, wet basis, in a sample, the actual weight of total solids is determined by analyzing the sample in accordance with Method #925.23 (33.2.09) of Official Methods of Analysis, Association of Official Analytical Chemists (AOAC) (16th Ed., 1995). The weight percent total solids, wet basis, is then calculated by dividing the actual weight of total solids by the actual weight of the sample. The weight percent of true protein, wet basis, for a particular sample is calculated after first determining the wet basis weight percent of total Kjeldahl nitrogen and the wet basis weight percent of non-protein nitrogen in the sample. The wet basis weight percent of total Kjeldahl nitrogen in the sample is determined using the method referenced above. The wet basis weight percent of non-protein nitrogen (NPN) in the sample is determined in accordance with Method #991.21 (33.2.12) of Official Methods of Analysis, Association of Official Analytical Chemists (AOAC) (16th Ed., 1995). The weight percent of true protein, wet basis, in the sample is then determined by subtracting the wet basis weight percent of non-protein nitrogen in the sample from the wet basis weight percent of total Kjeldahl nitrogen in the sample. To determine the weight percent lactose, wet basis, in a liquid sample, the weight of the liquid sample is first determined. The actual weight of lactose in the liquid sample may then be determined using analysis kit number 176-303, that is available from Boehringer-Mannheim of Indianapolis, Ind. in accordance with the procedural instructions included with analysis kit number 176-303. The weight percent lactose, wet basis, in the liquid sample is then calculated by dividing the actual weight of lactose in the liquid sample by the actual weight of the liquid sample. To determine the weight percent fat, wet basis, in a sample, the actual weight of fat in the sample is determined in accordance with Method #974.09 (33.7.18) of Official Methods of Analysis, Association of Official Analytical Chemists (AOAC) (16th Ed., 1995). The weight percent fat, wet basis, is then calculated by dividing the actual weight of fat in the sample by the actual weight of the sample. In this example, ten cows were orally fed 100 grams per cow per day of sorbitol along with their other daily rations during a test period of four weeks, while ten different cows of a control group were orally fed the same daily rations as the ten cows, with the exception that the ten cows of this control group were not given any sorbitol. The milk of the cows in the control group and the milk of the cows given sorbitol was sampled twice per week during the four week test period. Therefore, the values presented in Table 6 below for the various milk components for the control group and for the cows fed sorbitol represent averages of eight milk samples during the test period. The probability value, P, that is presented in Table 6 for each of the different milk components is a measure of statistical probability that the differing values between the control cattle and the cattle fed sorbitol, for each respective milk component, can be explained by the difference between the control group not being fed sorbitol and the test group that was fed sorbitol. A P value of 0.10 means that 10 times out of 100 the results can be explained by factors other than the feeding or withholding of sorbitol. […]

[3] = milk, average of days 3, 7, 14 minus day 0
[4] = milk, oral 100 gr/day, four weeks, 10 cows, average of eight samples

Question: With `OC[C@@H](O)[C@@H](O)[C@H](O)[C@@H](O)CO` [sorbitol] as the compound, how does the “weight percent of fat, true protein, and total solids in the milk (conclusion in words)” value (cows [1]; abomasal infusion, 14 day test period) read?
Answer: net increase

Question: What about the Ash (cows [1]; milk, Day 3) of the same compound?
Answer: 0.73 Wt. %

Question: What about the Fat (cows [1]; milk, Day 3) of the same compound?
Answer: 4.59 Wt %

Question: What about the Lactose (cows [1]; milk, Day 3) of the same compound?
Answer: 4.62 Wt. %

Question: What about the “Total Solids” value (cows [1]; milk, Day 3) of the same compound?
Answer: 13.00 Wt. %

Question: What about the “True Protein” value (cows [1]; milk, Day 3) of the same compound?
Answer: 3.06 Wt. %

Question: And the Ash (cows [1]; milk, Day 7)?
Answer: 0.73 Wt. %

Question: What about the Fat (cows [1]; milk, Day 7) of the same compound?
Answer: 3.78 Wt %

Question: What about the Lactose (cows [1]; milk, Day 7) of the same compound?
Answer: 4.87 Wt. %

Question: And the “Total Solids” value (cows [1]; milk, Day 7)?
Answer: 12.40 Wt. %

Question: What about the “True Protein” value (cows [1]; milk, Day 7) of the same compound?
Answer: 3.01 Wt. %

Question: And the Ash (cows [1]; milk, Day 14)?
Answer: 0.71 Wt. %

Question: What about the Fat (cows [1]; milk, Day 14) of the same compound?
Answer: 4.33 Wt %

Question: What about the Lactose (cows [1]; milk, Day 14) of the same compound?
Answer: 4.75 Wt. %

Question: What about the “Total Solids” value (cows [1]; milk, Day 14) of the same compound?
Answer: 12.88 Wt. %

Question: And the “True Protein” value (cows [1]; milk, Day 14)?
Answer: 3.09 Wt. %

Question: And the “Ash, Net Change” value (cows [1]; [3])?
Answer: no net change

Question: What about the “Fat, Net Change” value (cows [1]; [3]) of the same compound?
Answer: +0.67 Wt %

Question: And the “Lactose, Net Change” value (cows [1]; [3])?
Answer: −0.13 Wt. %

Question: And the “Total Solids, Net Change” value (cows [1]; [3])?
Answer: +0.63 Wt. %

Question: What about the “True Protein, Net Change” value (cows [1]; [3]) of the same compound?
Answer: +0.08 Wt. %

Question: And the Fat (cows [2]; [4])?
Answer: 4.02 Wt %

Question: And the Lactose (cows [2]; [4])?
Answer: 4.81 Wt. %

Question: What about the “Total Solids” value (cows [2]; [4]) of the same compound?
Answer: 12.11 Wt. %

Question: What about the “True Protein” value (cows [2]; [4]) of the same compound?
Answer: 2.76 Wt. %

Question: What about the “weight percent of milk components versus control group (conclusion in words)” value (cows [2]; oral feeding, not ruminally protected) of the same compound?
Answer: no statistically significant increase
